In article PMC10860144, “Exploring the Dispersion and Electrostatic Components in Arene–Arene Interactions between Ligands and G4 DNA to Develop G4-Ligands” (Journal of Medicinal Chemistry, 2024):
pIC50, pKd: −log10 of the molar value. Where two headings read alike, the source gives them in different places.

Experiments:
G4 DNA (Pu22) = assay: Isothermal titration calorimetry (ITC), reverse titration; design: species or system human; conditions: G4 DNA titrated to ligand; 19 °C; one-site binding model
Description: Unfortunately, this was only possible using reverse titration, adding G4 DNA to the ligand, and a direct comparison to the MST binding affinities, which were performed by titrating the ligand to the G4, can thus not be performed. […] The reason why 5 is more efficient in stabilizing G4 DNA could instead be linked to the entropic penalty (−TΔS), which is less for 5 (1.85 kcal/mol) compared to 27 (3.2 kcal/mol).
ITC experiments were performed using a MicroCal ITC200 instrument (GE Healthcare). A buffer containing 10 mM potassium phosphate and 100 mM KCl of pH 7.4 was prepared. The sample cell was filled with a 20 μM ligand, and the syringe with 120 μM prefolded G4 DNA. […] The data was analyzed in MICROCAL PEAQ-ITC analysis software using a one-site binding mode. […]
The following settings were applied: temperature 19 °C, reference power 7 μcal/sec, initial delay 300 sec, stirring speed 1000 RPM, spacing 120 sec, filter 5 sec, first injection 0.5 μL for 1 sec then 2 μL for 4 sec for the subsequent injections, and high-feedback mode. The data was analyzed in MICROCAL PEAQ-ITC analysis software using a one-site binding mode.
Figure S20. Binding curves with their associated ΔG-, ΔH-, and -TΔS-values for compounds 5 and 27 for G4 DNA (Pu22) measured by ITC with a one-site binding model. […]
structure. […] Excitation sculpting was used in the 1D 1H experiments, and 256 scans were recorded. […]

THP-1 cell line = assay: THP-1 cell viability (cytotoxicity); type: cell-based, human; conditions: read-out: Cell viability IC50 (THP1)
Description: THP1 cell viability was measured according to a previously published procedure.[48] […]
Table S3. Cell permeability and cell viability for 5 and 27
Compound Cell-permeability Cell viability IC50 Cell viability IC50 Cell viability IC50
(X x 10-6 cm/s) (THP1) (µM) (HeLa) (µM) (IHTLCP) (µM) […]
THP1 cell viability was measured according to a previously published procedure.9

dsDNA (5'Cy5-ds26) = assay: MST with fluorescently labeled dsDNA; type: binding
Description: We next challenged the compounds’ G4 selectivity with a FRET melting competition assay using 5 (2 μM) and 27 (5 μM) with c-MYC Pu22 G4 DNA and increasing amounts of dsDNA (Figure 6D and Table S1). […] In addition, we investigated if we could detect any binding of the compounds to dsDNA using MST with a fluorescently labeled dsDNA (Table S1).
5′-Cy5 labeled G4 DNAs for this study were purchased from Eurofins Genomics. Stock solutions were prepared in water at 100 μM concentration. The sequences used are listed in Supporting Information Table S1. The G4 DNA sequences were folded in KCl buffer (10 mM phosphate, 100 mM KCl, pH 7.4) by heating at 95 °C for 5 min and then cooling to room temperature. All the experiments were performed in 10 mM phosphate pH 7.4, 100 mM KCl, and 0.05% Tween20. The labeled DNA concentration is held constant at 25 nM, and ligand concentration is varied depending on ligands Kd (16 1:3 dilutions). The samples were loaded into standard MST graded glass capillaries and initial fluorescence intensity of the capillary was measured using Monolith NT.115 (Nano Temper, Germany) with 20% LED power. The change in fluorescence with ligand’s concentrations were plotted in Excel and fitted through nonlinear equation to obtain the binding constants.

[1] = Homo sapiens, THP-1, THP-1 cell line

Structure (SMILES)	pKd (G4 DNA (Pu22))	pIC50 (THP-1 cell line; [1])	pIC50 (THP-1 cell line; THP-1 cell line)	binding to dsDNA (MST) (dsDNA (5'Cy5-ds26))
Cc1cc(C)c2nc(Nc3nc(C)cc(NCCCN(C)C)n3)nc(C)c2c1 [Compound 5, N4-(3-(Dimethylamino)propyl)-6-methyl-N2-(4,6,8-trimethylquinazolin-2-yl)pyrimidine-2,4-diamine]	6.06	5.54	5.54	no binding could be observed
Cc1cc(C)c2nc(Nc3nc(C)cc(C)n3)nc(C)c2c1 [Compound 27, N-(4,6-Dimethylpyrimidin-2-yl)-4,6,8-trimethylquinazolin-2-amine]	5.98	< 4.30	≤ 4.30	no binding could be observed
